The target in data set [1] is IL-23 mediated STAT3 signalling (Homo sapiens, UniProt Q5VWK5). The data set can be described thus: Functional inhibition of IL-23 mediated STAT3 signalling (phospho-STAT3 Tyr705 MSD, DB cells). The class given is cell-based. The procedure: The ability of compounds to inhibit IL-23 mediated signalling was determined in the human-derived DB cell line (CRL-2289) (hereafter referred to as DB cells), which endogenously expresses the human IL-23R and human IL-12R β1 subunits. Upon binding of IL-23, the IL-23R forms a heterodimer signalling complex together with IL-12R β1, which through the JAK2/STAT3 pathway promotes phosphorylation of STAT3 to form phospho-STAT3. In the assay, the functional antagonism of IL-23 mediated phospho-STAT3 formation in DB cells by the compound is quantified using reagents capable of measuring the phosphorylation state of Tyr705 of STAT3 in the form of a phospho-STAT3 (Tyr705) MSD (Meso Scale Discovery) kit.
[…]. For compounds tested in this assay, the response was normalized relative to control values to calculate the IC50 and maximal inhibitory response from a concentration response curve of the compound in presence of a fixed concentration of human IL-23.
The assay procedure was as follows. DB cells were maintained in growth medium consisting of RPMI-1640 [Invitrogen 61870-010] supplemented with 10% V/V Foetal Bovine Serum (FBS) [(heat inactivated), Invitrogen 10270-106], and 1% V/V Penicillin-Streptomycin (Pen-Strep) Solution [Invitrogen 15140]. On the day of assay, cells were resuspended in Assay buffer consisting of RPMI-1640 [Invitrogen 61870-010] supplemented with 0.1 % w/V BSA [Sigma-Aldrich A9430] to a density of 7.5x10^6 cells/mL. Compounds to be tested for inhibition of hIL-23 mediated signalling were serially diluted in Assay buffer to 3X the final concentration. A solution of hIL-23 corresponding to 3X the EC80 of hIL-23 (1.7 nM) was also prepared in Assay buffer. To initiate the assay, 20 µL of DB cell suspension (corresponding to 150.000 cells/well) was added to the wells of a 96-well V-bottom Polypropylene plate [Corning 3363] followed by addition of 3X 20 µL of the diluted test compounds to separate wells. Following preincubation of the DB cells with inhibitor for 15 min in a cell incubator (37 °C, 5% CO2), 20 µL of the prepared 3X the EC80 of hIL-23 solution was added to each well and incubated for 90 min in a cell incubator (37 °C, 5% CO2). For some wells buffer only or IL-23 only corresponding to the EC80 was added to obtain readouts needed for normalization. To terminate the assay, the plate was spun at 1000 G for 5 min to pellet cells, the supernatant removed using an 8-channel manual pipette, and then added 50 µL/well Complete Lysis Buffer from the MSD STAT3 kit (Cat# K150SVD, Mesoscale) to the cell pellet. To completely lyse cells to release phospho-STAT3 for detection, the plate was shaken for 10 min at room temperature (500 rpm) sealed with aluminium foil and placed at -80 °C for a minimum of 15 min. Detection of the phospho-STAT3 level in the cell lysate from the individual wells was determined using the MSD STAT3 kit (Cat# K150SVD, Mesoscale) and read on a Meso QuickPlex SQ 120 plate reader (Mesoscale).
For data analysis raw data counts from the Meso QuickPlex SQ 120 plate reader were normalized relative to the response by the EC80 of hIL-23 alone (no compound added) and the buffer level. Compound potency (IC50) and maximal inhibitory response (% inhibition) were estimated by computer-aided curve fitting using a 4-parameter logistic (4PL) non-linear model. […]. Typically compounds with a low IC50 are desired. Typically compounds capable of completely inhibiting the IL23-induced response are desired. […]. Table 3-2: hIL-23 (pSTAT3) antagonist IC50 and % inhibition data

The next data set deals with T1, human IL-23R (Homo sapiens, UniProt Q5VWK5).
T1 sequence (Q5VWK5 22-629): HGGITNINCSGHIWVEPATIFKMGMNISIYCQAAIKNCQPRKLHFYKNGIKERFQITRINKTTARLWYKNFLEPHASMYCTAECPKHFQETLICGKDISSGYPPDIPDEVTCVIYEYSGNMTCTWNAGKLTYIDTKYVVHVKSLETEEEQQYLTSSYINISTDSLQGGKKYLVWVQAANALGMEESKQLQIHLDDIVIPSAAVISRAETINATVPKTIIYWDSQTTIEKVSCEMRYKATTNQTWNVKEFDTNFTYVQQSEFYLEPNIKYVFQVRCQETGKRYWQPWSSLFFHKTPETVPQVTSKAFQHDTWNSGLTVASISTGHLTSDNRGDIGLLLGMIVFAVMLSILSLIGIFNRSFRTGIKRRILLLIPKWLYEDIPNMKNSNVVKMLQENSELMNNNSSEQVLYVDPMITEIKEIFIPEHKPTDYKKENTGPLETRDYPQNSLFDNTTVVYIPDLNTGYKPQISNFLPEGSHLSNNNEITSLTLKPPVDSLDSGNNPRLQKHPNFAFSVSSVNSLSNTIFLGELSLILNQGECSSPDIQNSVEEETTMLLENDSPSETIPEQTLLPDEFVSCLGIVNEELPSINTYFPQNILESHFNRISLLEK
As to the kind of experiment: biochemical. Put shortly: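 BRET displacement of a TAMRA-labelled reference compound from N-terminal Nanoluc-IL-23R fusion protein in membranes from stably transfected HEK293 cells. Incubation 2 h at room temperature, then Nanoluc substrate was added and the TAMRA/Nanoluc ratio read. IC50 and maximal displacement came from 4-parameter logistic fits.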

In data set [2] the test system is porcine pepsin (P7125, Sigma Aldrich). The data set can be described thus: SGF: sodium chloride, HCl, pH 1.2, with porcine pepsin (3.2 g/L). As to conditions: 37 °C, up to 4 hours.
Data set [3] has as its system porcine pancreatin (P1625, Sigma Aldrich). As to the kind of experiment: SIF: monobasic potassium phosphate, pH 6.8, with porcine pancreatin (10 g/L). The conditions noted are these: 37 °C, up to 4 hours.
In data set [4] the target is T2, human IL-23R endogenously expressed on DB cells (human, UniProt Q5VWK5 24-629).
T2 sequence (looked up): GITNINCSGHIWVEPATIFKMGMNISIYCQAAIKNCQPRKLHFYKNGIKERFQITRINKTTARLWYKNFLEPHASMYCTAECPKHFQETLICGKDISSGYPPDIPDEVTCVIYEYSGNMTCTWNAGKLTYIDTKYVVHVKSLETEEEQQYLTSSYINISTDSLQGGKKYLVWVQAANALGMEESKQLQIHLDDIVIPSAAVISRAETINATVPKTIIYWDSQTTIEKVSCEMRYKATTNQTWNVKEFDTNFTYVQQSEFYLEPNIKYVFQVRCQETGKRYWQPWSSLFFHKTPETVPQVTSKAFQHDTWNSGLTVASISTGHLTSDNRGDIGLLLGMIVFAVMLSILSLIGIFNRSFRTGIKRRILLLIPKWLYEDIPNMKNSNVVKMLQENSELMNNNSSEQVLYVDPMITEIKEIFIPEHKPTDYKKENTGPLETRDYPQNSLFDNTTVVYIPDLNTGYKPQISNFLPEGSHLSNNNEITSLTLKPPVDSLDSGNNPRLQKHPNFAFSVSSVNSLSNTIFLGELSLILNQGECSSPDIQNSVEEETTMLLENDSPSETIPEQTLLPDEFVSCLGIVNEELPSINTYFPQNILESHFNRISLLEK
As to the kind of experiment: cell-based or functional assay.

Data set [5] concerns the target T3, Nluc-IL23R fusion protein (human, UniProt Q5VWK5 22-629).
T3 construct: range 22-629; expressed with a secretion signal in HEK293 cells; used as crude membrane preparation; also called hIL-23R; human IL-23R; not shown: Nanoluc protein from the expression plasmid N1371 (Promega), N-terminal of IL-23R
T3 sequence (looked up): T1 sequence (Q5VWK5 22-629)
As to the kind of experiment: BRET competition vs TAMRA-labelled peptide, Nluc-IL23R membranes.

Read-outs that look alike come from different tables or passages of the source. *1 amine or outer side, *2 acyl side, *3 side chain or, on linkers, in order; H or OH if unused. Where a SMILES comes first, the peptide text is derived from it. Bridges are numbered along the chain shown (N, C = ends). Primed or numbered codes have the meaning given here. [ ]: non-standard residue; d: D form. 4‑Aminomethyl‑phenylacetyl = 4-aminomethyl-phenylacetyl unit, its amine closes the lactam, O=C(Cc1ccc(CN[*:1])cc1)[*:2]; Q(pyrrolidin)″ = (2S)-2-amino-5-oxo-5-pyrrolidin-1-yl-pentanoic acid, O=C(CC[C@H](N[*:1])C(=O)[*:2])N1CCCC1; αMeAla(3-pyridyl) = C[C@](N)(Cc1cccnc1)C(=O)O; 2Nal = N[C@@H](Cc1ccc2ccccc2c1)C(=O)O; AEF = NCCOc1ccc(C[C@H](N)C(=O)O)cc1; X1 = O=C(Cc1ccc(CN[*:1])cc1)[*:2]; 3Pal = N[C@@H](Cc1cccnc1)C(=O)O; αMeL = CC(C)C[C@](C)(N)C(=O)O; β3hL = CC(C)C[C@H](N)CC(=O)O; Iso‑Dab = not defined here; Dab = NCC[C@H](N)C(=O)O

The IC50 is the concentration that inhibits the measured activity by half. Regarding `CC(C)C[C@@H](CC(N)=O)NC(=O)[C@H](Cc1cccnc1)NC(=O)[C@H](CCN)NC(=O)[C@@H]1CCC(=O)NCc2ccc(cc2)CC(=O)N[C@@H](CO)C(=O)N[C@H]2CCC(=O)NCC[C@H](NC(=O)[C@H](CCC(N)=O)NC(=O)[C@H](Cc3c[nH]c4ccccc34)NC2=O)C(=O)N[C@@H](Cc2ccc(OCCN)cc2)C(=O)N[C@@H](Cc2ccc3ccccc3c2)C(=O)N[C@@](C)(CC(C)C)C(=O)N1` [Compound 11, [4-Aminomethyl-phenylacetyl](1c)*SE(2c)WQ[Dab](2c)[Y(2-aminoethoxy)][2-Nal][2-Me-Leu]E(1c)[Dab][3-(3-Pyridyl)-Ala][beta-hLeu]-[NH2]] ([X1]SEWQ[Dab][AEF][2Nal][αMeL]E[Dab][3Pal][β3hL]-NH2; lactam 3-6, N-10), the IC50 in data set [1] (Example 2 (Tables 2-1 to 2-4), read-out: IC50 (pSTAT3)) turned out to be 680 pM. Moreover, the “% displacement (hIL-23R binding)” value at human IL-23R was found to be 103%.
On to `CC(C)C[C@]1(C)NC(=O)[C@H](Cc2ccc3ccccc3c2)NC(=O)[C@H](Cc2ccc(OCCN)cc2)NC(=O)[C@@H]2CCNC(=O)CC[C@H](NC(=O)[C@H](CO)NC(=O)Cc3ccc(cc3)CNC(=O)CC[C@@H](C(=O)NCC[C@H](N)C(=O)N[C@@](C)(Cc3cccnc3)C(N)=O)NC1=O)C(=O)N[C@@H](Cc1c[nH]c3ccccc13)C(=O)N[C@@H](CCC(N)=O)C(=O)N2` [Compound 15, [4-Aminomethyl-phenylacetyl](1c)*SE(2c)WQ[Dab](2c)[Y(2-aminoethoxy)][2-Nal][2-Me-Leu]E(1c)[Iso-Dab][2-Me-3-(3-Pyridyl)-Ala]-[NH2]], for which the IC50 in data set [1] (Table 3-2, EC80 of hIL-23, read-out: hIL-23 (pSTAT3) antagonist IC50) came out at 12000 pM; against human IL-23R, 450 pM. Further, the “% displacement (hIL-23R binding)” value at human IL-23R was 96%.
Consider “[4-Aminomethyl-phenylacetyl](1c)*SE(2c)WQ[Dab](2c)[Y(2-aminoethoxy)][2-Nal][2-Me-Leu]E(1c)[THP][3-(3-Pyridyl)-Ala]”, for which the not cleaved was found to be 94% remaining after 4 h in data set [2] and 96% remaining after 4 h in data set [3].
For “[4-Aminomethyl-phenylacetyl](1c)*SE(2c)W[Cit][Dab](2c)[Y(2-aminoethoxy)][2-Nal][2-Me-Leu]E(1c)[Dab][3-(3-Pyridyl)-Ala]”, the not cleaved worked out at 99% remaining after 4 h in data set [2] and 91% remaining after 4 h in data set [3].
In the case of “[4-Aminomethyl-phenylacetyl](1c)*SE(2c)W[Orn][Dab](2c)[Y(2-aminoethoxy)][2-Nal][2-Me-Leu]E(1c)[Dab][3-(3-Pyridyl)-Ala]”, the not cleaved in data set [2] and in data set [3] was 110% remaining after 4 h each time.
Take “[4-Aminomethyl-phenylacetyl](1c)*SE(2c)W[Q(Me)][Dab](2c)[Y(2-aminoethoxy)][2-Nal][2-Me-Leu]E(1c)[Dab][3-(3-Pyridyl)-Ala]”: the not cleaved in data set [2] stood at 90% remaining after 4 h; in data set [3], 92% remaining after 4 h.

B1: Compound 20 (peptide)
peptide: [4‑Aminomethyl‑phenylacetyl]AEWQ[Dab][AEF][2Nal][αMeL]E[Dab][3Pal]-NHMe
modifications: lactam N-10, 3-6
SMILES: CNC(=O)[C@H](Cc1cccnc1)NC(=O)[C@H](CCN)NC(=O)[C@@H]1CCC(=O)NCc2ccc(cc2)CC(=O)N[C@@H](C)C(=O)N[C@H]2CCC(=O)NCC[C@H](NC(=O)[C@H](CCC(N)=O)NC(=O)[C@H](Cc3c[nH]c4ccccc34)NC2=O)C(=O)N[C@@H](Cc2ccc(OCCN)cc2)C(=O)N[C@@H](Cc2ccc3ccccc3c2)C(=O)N[C@@](C)(CC(C)C)C(=O)N1
Take B1: in data set [4], the “hIL-23 (pSTAT3) antagonist % inhibition” value amounted to 101% and the “hIL-23 (pSTAT3) antagonist IC50” value turned out to be 26 pM. Moreover, the % displacement (hIL-23R binding) in data set [5] came to 97%.

B2: Compound 15 (peptide)
peptide: [4‑Aminomethyl‑phenylacetyl]SEWQ[Dab][AEF][2Nal][αMeL]E[Iso‑Dab][αMeAla(3-pyridyl)]-NH2
modifications: lactam N-10, 3-6; reading uncertain; also: iso-Dab11 joined via side-chain amine
Regarding B2, in data set [4], the “hIL-23 (pSTAT3) antagonist % inhibition” value worked out at 97% and the “hIL-23 (pSTAT3) antagonist IC50” value is 12 nM. In addition, the % displacement (hIL-23R binding) in data set [5] was 96%.
As for [4‑Aminomethyl‑phenylacetyl]SEW[Q(pyrrolidin)″][Dab][AEF][2Nal][αMeL]E[Dab]-NH2 (lactam N-10, 3-6) [Ref 146], in data set [4], the “hIL-23 (pSTAT3) antagonist % inhibition” value was 98% and the “hIL-23 (pSTAT3) antagonist IC50” value is 42 nM. In data set [5], this molecule gave a % displacement (hIL-23R binding) of 105%.
With [4‑Aminomethyl‑phenylacetyl]SEWQ[Dab][AEF][2Nal][αMeL]E[Dab][H(Me)]-NH2 (lactam N-10, 3-6) [Compound 14], in data set [4], the “hIL-23 (pSTAT3) antagonist % inhibition” value was 99% and the “hIL-23 (pSTAT3) antagonist IC50” value was 7.2 nM. In data set [5], the % displacement (hIL-23R binding) came to 102% and the IC50 amounted to 110 pM.

For the origin of these results see EP4471049A1 (Zealand Pharma A/S, priority 2023, dated 2024).
